Test results from patent publication US20240245677A1, “SELECTED COMPOUNDS FOR TARGETED DEGRADATION OF BRD9” (C4 THERAPEUTICS, INC., priority 2021, published 2024).

Assays:
[1] = Dog Hepatocyte Stability Assay; type: in vitro ADME; conditions: beagle, cryopreserved hepatocytes
Experimental: (§1) The metabolic stability of Compound 1 was evaluated using cryopreserved hepatocytes from mice, rats, dogs, cynomolgus monkeys, and humans.
(§2) 50 μL of 1 mM intermediate solutions for each test compound was prepared by adding 5 μL of 10 mM stock solution to 45 μL of a 1:1 mixture of water and acetonitrile. A 2 μM working stocks for each test compound were prepared in incubation media, InvitroGRO™ KHB (Bio IVT, Westbury, NY, USA), by adding 2 μL of 1 mM intermediate stock to 998 μL of incubation media.
(§3) To thaw the hepatocytes, InvitroGRO™ HT thawing medium (BioIVT, Westbury, NY, USA) was prewarmed to 37° C., and 48 mL of warmed thawing medium was transferred to a sterile 50 mL conical tube. The hepatocyte vial was removed from the liquid nitrogen Dewar, and gently thawed in a water bath at 37° C. for 1-2 minutes, then the contents of the vial were emptied into a conical tube with prewarmed InvitroGRO HT medium. 1 mL of prewarmed InvitroGRO HT medium was added to each emptied hepatocyte vial to resuspend any remaining cells, and the contents were pipetted into the hepatocyte suspension. The tube containing the hepatocyte suspension was centrifuged at 50*g for 5 minutes. The supernatant was removed carefully, and the remaining pellet was resuspended by adding 1 mL of incubation media, InvitroGRO KHB, and gently shaking until there were no clumps.
(§4) Cell viability was determined using the trypan blue method. 25 μL of hepatocyte cell suspension was added to a trypan blue (TB) solution (containing 775 μL InvitroGRO KHB and 200 μL of Trypan Blue). Cell count was taken using a hemacytometer.
(§5) For mouse hepatocytes, 200 μL of hepatocytes (0.8×10^6 cells/mL) were added to the wells of a 48 well plate (Catalog No. 92048, TPP Techno Plastic Products AG, Trasadingen, Switzerland) and pre-incubated for 30 minutes at 37° C. For rat, dog, monkey, […], 200 μL of hepatocytes (2×10^6 cells/mL) were added to the wells of a 48 well plate (Catalog No. 92048, TPP Techno Plastic Products AG, Trasadingen, Switzerland) and pre-incubated for 30 minutes at 37° C.
(§6) For all species of hepatocytes, once the pre-incubation period was complete, 200 μL of 2 μM working stock of test compound was added to the wells of the plate, and the plate was vortexed on a Vibramax™ 100 (P/N 544-21200-00, Heidolph Instruments GmbH & Co. KG, Schwabach, Germany) at 500 rpm in a 37° C. CO2 incubator (Model No. 51026280, ThermoFisher Scientific, Waltham, MA, USA). At each time point of 0, 15, 30, 60, 90, and 120 minutes, 50 μL of incubation mixture was precipitated with 200 μL of acetonitrile containing internal standard.
(§7) At the end of the experiment, the samples were centrifuged at 4000 rpm for 10 minutes. […]

[2] = system: cryopreserved hepatocytes from beagle dogs; assay: Dog Hepatocyte Stability Assay; type: in vitro ADME
Experimental: as §1, §2, §3, §4, §5, §6, §7

[3] = target: T1, SALL4 (Homo sapiens, UniProt Q96SW2+Q9UJQ4); assay: SALL4 HiBiT degradation assay in KELLY.2 cells; type: cell-based
T1 construct: CRISPR-edited to endogenously express HiBiT tagged SALL4; host or cells: KELLY.2
Excerpt: Nano-Glo® HiBiT Lytic Assay System was purchased from Promega (Catalog No. N3050, Madison, WI, USA). […] The HiBiT polypeptide tag was introduced into the C-terminus of the endogenous SALL4 locus by CRISPR-Cas9 to produce the modified KELLY.2 cell line. The HiBiT polypeptide allows reconstitution of NanoBiT enzyme following cell lysis and addition of the complementing LgBiT polypeptide that activates substrate to produce a luminescent signal that is directly proportional to the amount of HiBiT-tagged SALL4.
KELLY.2 cells were routinely sub-cultured to maintain cell density between 30-80% confluence, not to exceed 10 passages. Cells were washed with PBS, trypsinized for 5 minutes at 37° C., and resuspended in fresh growth media without phenol red. […] Cell concentration was adjusted with growth media without phenol red to 2×10^5 cells/mL.
30 nL DMSO was transferred to all control wells.
30 μL of media was dispensed to column 24 as background positive control (P). Plates were spun briefly at 1000 rpm and cells were incubated at 37° C., 5% CO2 for 6 hours. Final concentration of DMSO was 0.1% for all samples.
Cellular SALL4 protein level was determined based on quantification of HiBiT using Nano-Glo® HiBiT Lytic Assay System (Promega). […] Cells treated in the absence of the test compound (0.1% DMSO vehicle) were the negative control (N) and wells containing only media were the positive control (P).
Percent response of compound-treated samples (T) were calculated by normalizing to the DMSO treated negative (N) controls on the same microtiter plate after background (i.e., positive control) signal subtraction:
Curve fit and DC50 (concentration that degrades 50% SALL4) determination was performed by 4 parametric logistic fit analysis using software such as GraphPad Prism software (GraphPad Software, LLC, San Diego, CA, USA). The fit was performed through minimization of the root mean squared error between observed and calculated values of the four-parameter logistic equation using the simplex optimizer of the Apache Commons Math library. […] DC50 values were computed as the concentrations where the fitted curves cross the 50% response level. Averages and standard deviations were computed from replicates of the experiment.

[4] = Crystallization under nitrogen flow by fast evaporation; type: physicochemical
Experimental: Based on approximate solubility results, about 10 mg of Compound 1 free form Pattern E was dissolved in suitable amount of solvents. […] Solid residues were examined for their polymorphic form.

T1 sequence (Q9UJQ4 whole entry): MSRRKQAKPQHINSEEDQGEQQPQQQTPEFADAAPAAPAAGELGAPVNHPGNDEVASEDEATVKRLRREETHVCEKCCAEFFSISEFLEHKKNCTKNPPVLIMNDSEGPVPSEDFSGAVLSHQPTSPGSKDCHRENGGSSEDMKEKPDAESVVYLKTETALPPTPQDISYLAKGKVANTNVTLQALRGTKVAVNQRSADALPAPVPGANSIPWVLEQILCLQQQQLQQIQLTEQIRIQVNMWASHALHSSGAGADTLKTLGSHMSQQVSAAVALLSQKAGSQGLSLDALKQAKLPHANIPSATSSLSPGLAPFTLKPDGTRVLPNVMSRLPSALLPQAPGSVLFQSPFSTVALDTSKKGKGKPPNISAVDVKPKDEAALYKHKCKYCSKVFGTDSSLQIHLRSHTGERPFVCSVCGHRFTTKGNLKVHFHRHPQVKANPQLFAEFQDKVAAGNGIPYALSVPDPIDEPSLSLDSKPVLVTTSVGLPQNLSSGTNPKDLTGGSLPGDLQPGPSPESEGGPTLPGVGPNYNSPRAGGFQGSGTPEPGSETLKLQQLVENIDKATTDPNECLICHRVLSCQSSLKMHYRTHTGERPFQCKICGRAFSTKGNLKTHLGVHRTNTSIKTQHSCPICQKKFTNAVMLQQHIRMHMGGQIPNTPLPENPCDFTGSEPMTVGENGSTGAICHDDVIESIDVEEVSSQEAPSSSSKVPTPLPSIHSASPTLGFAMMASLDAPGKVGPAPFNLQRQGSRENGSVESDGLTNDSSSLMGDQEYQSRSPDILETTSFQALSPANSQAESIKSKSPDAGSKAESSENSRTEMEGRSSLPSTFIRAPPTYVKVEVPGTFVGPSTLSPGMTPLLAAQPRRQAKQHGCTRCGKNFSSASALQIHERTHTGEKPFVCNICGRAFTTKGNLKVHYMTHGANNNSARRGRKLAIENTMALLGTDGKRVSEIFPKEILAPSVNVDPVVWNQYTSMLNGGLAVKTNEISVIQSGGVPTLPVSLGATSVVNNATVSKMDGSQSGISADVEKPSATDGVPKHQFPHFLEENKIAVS
T1 sequence (Q96SW2 whole entry): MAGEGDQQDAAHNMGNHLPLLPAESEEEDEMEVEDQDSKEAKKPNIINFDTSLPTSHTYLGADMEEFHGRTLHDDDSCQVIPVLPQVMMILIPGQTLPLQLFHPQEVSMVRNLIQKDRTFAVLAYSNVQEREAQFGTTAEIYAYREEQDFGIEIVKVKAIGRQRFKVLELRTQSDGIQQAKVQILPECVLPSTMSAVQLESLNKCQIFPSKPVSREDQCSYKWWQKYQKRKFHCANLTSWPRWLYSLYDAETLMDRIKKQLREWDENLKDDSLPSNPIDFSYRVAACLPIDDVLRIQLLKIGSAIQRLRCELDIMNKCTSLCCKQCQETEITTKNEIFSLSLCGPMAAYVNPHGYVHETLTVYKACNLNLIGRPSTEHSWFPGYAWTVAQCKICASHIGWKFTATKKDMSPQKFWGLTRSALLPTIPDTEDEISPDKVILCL
T1 sequence (Q16531 2-1140 partner limits assumed): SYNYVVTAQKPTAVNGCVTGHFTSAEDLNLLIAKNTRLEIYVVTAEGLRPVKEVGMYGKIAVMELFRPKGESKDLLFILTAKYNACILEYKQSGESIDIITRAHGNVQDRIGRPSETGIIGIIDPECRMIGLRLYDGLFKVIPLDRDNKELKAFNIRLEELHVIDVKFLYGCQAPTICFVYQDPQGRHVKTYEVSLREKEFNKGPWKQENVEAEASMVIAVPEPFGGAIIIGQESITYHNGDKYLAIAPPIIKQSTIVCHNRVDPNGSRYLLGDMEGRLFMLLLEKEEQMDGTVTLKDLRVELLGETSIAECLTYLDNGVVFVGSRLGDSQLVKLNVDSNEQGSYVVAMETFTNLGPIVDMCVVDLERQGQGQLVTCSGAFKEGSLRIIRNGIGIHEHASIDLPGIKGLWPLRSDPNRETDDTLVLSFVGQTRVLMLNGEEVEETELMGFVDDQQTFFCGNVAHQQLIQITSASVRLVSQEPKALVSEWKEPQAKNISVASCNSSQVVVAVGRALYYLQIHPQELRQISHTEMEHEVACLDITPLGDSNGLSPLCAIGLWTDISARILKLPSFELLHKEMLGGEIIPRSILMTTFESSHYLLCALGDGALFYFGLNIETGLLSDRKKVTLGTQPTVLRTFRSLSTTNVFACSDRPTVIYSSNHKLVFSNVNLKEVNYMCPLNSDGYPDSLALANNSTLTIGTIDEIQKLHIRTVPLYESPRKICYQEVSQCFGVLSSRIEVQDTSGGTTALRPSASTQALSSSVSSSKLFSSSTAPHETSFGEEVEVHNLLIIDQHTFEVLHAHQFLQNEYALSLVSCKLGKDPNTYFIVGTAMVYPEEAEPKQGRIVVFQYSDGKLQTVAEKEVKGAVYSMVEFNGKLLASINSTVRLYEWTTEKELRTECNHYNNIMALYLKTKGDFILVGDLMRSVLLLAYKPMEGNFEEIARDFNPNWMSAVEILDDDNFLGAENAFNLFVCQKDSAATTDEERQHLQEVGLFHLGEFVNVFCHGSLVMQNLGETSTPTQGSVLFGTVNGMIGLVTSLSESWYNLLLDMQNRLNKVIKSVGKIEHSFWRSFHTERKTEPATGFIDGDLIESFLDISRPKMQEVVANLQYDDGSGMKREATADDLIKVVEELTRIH

**Q.** Which half-life at 1 µM [1] does the source give for `COc1cc(-c2cn(C)c(=O)c(C)c2C)cc(OC)c1CN1CC[C@H](N2CCN(c3ccc(N[C@H]4CCC(=O)NC4=O)cc3F)CC2)C(F)(F)C1` [Compound 1, (S)-3-((4-(4-((S)-1-(2,6-dimethoxy-4-(1,4,5-trimethyl-6-oxo-1,6-dihydropyridin-3-yl)benzyl)-3,3-difluoropiperidin-4-yl)piperazin-1-yl)-3-fluorophenyl)amino)-piperidine-2,6-dione] here?
**A.** The half-life at 1 µM was > 2 h.

**Q.** What about the hepatocyte CLint at 1 µM ([1]; read-out: CL int cells) of the same compound?
**A.** The hepatocyte CLint at 1 µM was 1.49 µL/min/1e6 cells.

**Q.** What about the “CLh int in vivo” value [2] of the same compound?
**A.** Its value is 11.48 mL/min/Kg body wt.

**Q.** What about the “CLhb scaled well stirred” value [2] of the same compound?
**A.** The value was 8.6 mL/min/kg body wt.

**Q.** What about the “% SALL4 Remaining Relative to Vehicle Control at 6 hr, Mean” value ([3]; 0.101 nM) of the same compound?
**A.** Its value is 103.8%.

**Q.** What about the “% SALL4 Remaining Relative to Vehicle Control at 6 hr, Mean” value ([3]; 0.318 nM) of the same compound?
**A.** The value was 104.1%.

**Q.** What about the “% SALL4 Remaining Relative to Vehicle Control at 6 hr, Mean” value ([3]; 1.01 nM) of the same compound?
**A.** Its value is 104.1%.

**Q.** And the “% SALL4 Remaining Relative to Vehicle Control at 6 hr, Mean” value ([3]; 3.17 nM)?
**A.** Its value is 103.7%.

**Q.** And the “% SALL4 Remaining Relative to Vehicle Control at 6 hr, Mean” value ([3]; 10.0 nM)?
**A.** The value was 106.5%.

**Q.** And the “% SALL4 Remaining Relative to Vehicle Control at 6 hr, Mean” value ([3]; 31.7 nM)?
**A.** The value was 106.1%.

**Q.** And the “% SALL4 Remaining Relative to Vehicle Control at 6 hr, Mean” value ([3]; 100 nM)?
**A.** The value was 104.2%.

**Q.** What about the “% SALL4 Remaining Relative to Vehicle Control at 6 hr, Mean” value ([3]; 317 nM) of the same compound?
**A.** The value was 105.0%.

**Q.** What about the “% SALL4 Remaining Relative to Vehicle Control at 6 hr, Mean” value ([3]; 1000 nM) of the same compound?
**A.** The value was 104.0%.

**Q.** And the “% SALL4 Remaining Relative to Vehicle Control at 6 hr, Mean” value ([3]; 3161 nM)?
**A.** The value was 104.4%.

**Q.** What about the “% SALL4 Remaining Relative to Vehicle Control at 6 hr, Mean” value ([3]; 9990 nM) of the same compound?
**A.** Its value is 96.6%.

**Q.** And the Emax ([3]; SALL4-HiBiT, KELLY.2 cells, 6 hours, read-out: Mean Emax (%) ± SD)?
**A.** Its Emax is 98.9 ± 2.1%.

**Q.** What about the “effect on degradation of SALL4” value ([3]; concentrations up to 10 μM, 6 hours) of the same compound?
**A.** Its value is “no significant effect”.

**Q.** What about the Comments ([4]; fast evaporation under nitrogen flow, 1,4-dioxane) of the same compound?
**A.** Its Comments is “Gel-like sample”.

**Q.** What about the Comments ([4]; fast evaporation under nitrogen flow, 2-MeTHF) of the same compound?
**A.** Its Comments is “Gel-like sample”.

**Q.** And the Comments ([4]; fast evaporation under nitrogen flow, Acetone)?
**A.** The Comments was “Gel-like sample”.

**Q.** What about the XRPD ([4]; fast evaporation under nitrogen flow, Acetonitrile) of the same compound?
**A.** Its XRPD is “Pattern B”.

**Q.** And the Comments ([4]; fast evaporation under nitrogen flow, DCM)?
**A.** The Comments was “Gel-like sample”.

**Q.** And the Comments ([4]; fast evaporation under nitrogen flow, Ethanol)?
**A.** The Comments was “Gel-like sample”.

**Q.** And the Comments ([4]; fast evaporation under nitrogen flow, Ethyl acetate)?
**A.** Its Comments is “Gel-like sample”.

**Q.** What about the Comments ([4]; fast evaporation under nitrogen flow, THF) of the same compound?
**A.** The Comments was “Gel-like sample”.
